Reference: paper PMC6368403, “Identification of a bilirubin receptor that may mediate a component of cholestatic itch” (eLife, 2019)

Key:
[1] = molecular target: T1, MRGPRX4 (Homo sapiens, UniProt Q96LA9); experiment: Ca2+ imaging and concentration-Ca2+ response (EC50) in HEK293 cells expressing MRGPRX4; format: cell-based
T1 construct: expressed in transfected cells
Summary of the method: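 HEK293 cells stably expressing the mouse or human receptor, loaded with Fura 2-AM 30 min at 37 °C, imaged in HEPES-buffered CIB pH 7.4 (340/380 nm excitation, 510 nm emission). Haem metabolites diluted from DMSO into 20 mM Tris, 150 mM NaCl pH 8.8. EC50 from triplicate dose-responses, repeated 2–4 times.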

[2] = molecular target: T2, MRGPRA1 (Mus musculus, UniProt Q91WW5); experiment: Microscale thermophoresis binding to MRGPRA1; design: Transformed binding isotherm (mean of three experiments): unit not given here; settings: for Transformed binding isotherm (mean of three experiments): MRGPRA1 (Fig 2E)
T2 construct: expressed in transfected cells
T2 sequence (Q91WW5 1-304): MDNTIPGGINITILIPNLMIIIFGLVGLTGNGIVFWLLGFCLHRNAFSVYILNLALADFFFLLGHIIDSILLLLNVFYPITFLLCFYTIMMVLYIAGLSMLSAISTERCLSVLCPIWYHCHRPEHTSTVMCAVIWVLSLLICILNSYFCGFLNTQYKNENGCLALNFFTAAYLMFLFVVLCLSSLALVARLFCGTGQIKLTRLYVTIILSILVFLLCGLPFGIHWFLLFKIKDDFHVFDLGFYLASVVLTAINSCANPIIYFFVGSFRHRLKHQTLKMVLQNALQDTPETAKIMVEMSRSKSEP
Experimental: (§1) Binding isotherms for MRGPRA1, MRGPRX4, and MRGRPC11 towards various ligands were determined by microscale thermophoresis with the NanoTemper monolith NT.115 instrument ([Duhr and Braun, 2006]). Ligands were pre-incubated with 10 µM of the GFP-tagged receptor of interest for 5 min at room temperature in binding buffer (20 mM Tris and 150 mM NaCl at pH 8.8). Receptors were crudely purified as a membrane fraction from cells stably expressing the receptor ([Vasavda et al., 2017]). Haem metabolites were freshly dissolved in 0.1 M NaOH in dim light and then diluted into assay buffer. Lyophilized BAM8-22 was dissolved in binding buffer. The pH of each ligand was evaluated prior to incubation with a receptor. Samples were loaded into NT.115 Hydrophobic-Treated Capillaries from NanoTemper. Microscale thermophoretic experiments were executed using 20% LED power and 15% MST power. KDs were calculated using the law of mass action with data from three independent experiments. Binding between bilirubin and receptors was evaluated purely thermophoretically, whereas binding between BAM8-22 and MRGPRC11 was evaluated by T-Jump. Samples with dramatic deviations in initial fluorescence were excluded.

[3] = molecular target: T1, MRGPRX4; experiment: Microscale thermophoresis binding to MRGPRX4; design: microscale thermophoresis response (binding isotherm), mean: unit not given here; settings: for microscale thermophoresis response (binding isotherm), mean: mean of n=3, Fig 2-J
Experimental: as §1

T1 sequence (Q96LA9 whole entry): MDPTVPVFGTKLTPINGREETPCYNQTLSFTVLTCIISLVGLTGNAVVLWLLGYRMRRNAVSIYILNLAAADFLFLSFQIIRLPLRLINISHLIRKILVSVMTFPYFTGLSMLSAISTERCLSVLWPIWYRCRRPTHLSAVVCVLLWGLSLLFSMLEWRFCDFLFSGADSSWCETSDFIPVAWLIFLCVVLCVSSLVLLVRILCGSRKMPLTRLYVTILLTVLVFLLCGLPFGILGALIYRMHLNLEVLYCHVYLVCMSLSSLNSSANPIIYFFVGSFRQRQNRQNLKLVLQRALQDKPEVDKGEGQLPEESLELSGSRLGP

## hemin
[1]
  Calcium response / activation of MRGPRX4-expressing cells: had no effect
[2]; [Ligand] 3.05e-8 M
  Transformed binding isotherm (mean of three experiments): 0
[2]; [Ligand] 6.1e-8 M
  Transformed binding isotherm (mean of three experiments): 0
[2]; [Ligand] 1.221e-7 M
  Transformed binding isotherm (mean of three experiments): 0
[2]; [Ligand] 2.441e-7 M
  Transformed binding isotherm (mean of three experiments): 0
[2]; [Ligand] 4.883e-7 M
  Transformed binding isotherm (mean of three experiments): 0
[2]; [Ligand] 9.766e-7 M
  Transformed binding isotherm (mean of three experiments): 0
[2]; [Ligand] 1.9531e-6 M
  Transformed binding isotherm (mean of three experiments): 0
[2]; [Ligand] 3.9063e-6 M
  Transformed binding isotherm (mean of three experiments): 0
[2]; [Ligand] 7.8125e-6 M
  Transformed binding isotherm (mean of three experiments): 0
[2]; [Ligand] 1.5625e-5 M
  Transformed binding isotherm (mean of three experiments): 0
[2]; [Ligand] 3.125e-5 M
  Transformed binding isotherm (mean of three experiments): 0
[2]; [Ligand] 6.25e-5 M
  Transformed binding isotherm (mean of three experiments): 0
[2]; [Ligand] 0.000125 M
  Transformed binding isotherm (mean of three experiments): 0
[2]; [Ligand] 0.00025 M
  Transformed binding isotherm (mean of three experiments): 0
[2]; [Ligand] 0.0005 M
  Transformed binding isotherm (mean of three experiments): 0
[2]; microscale thermophoresis
  Binding to MRGPRA1: did not bind
[3]; [Ligand] 3.05e-8 M
  microscale thermophoresis response (binding isotherm), mean: 0
[3]; [Ligand] 6.1e-8 M
  microscale thermophoresis response (binding isotherm), mean: 0
[3]; [Ligand] 1.221e-7 M
  microscale thermophoresis response (binding isotherm), mean: 0
[3]; [Ligand] 2.441e-7 M
  microscale thermophoresis response (binding isotherm), mean: 0
[3]; [Ligand] 4.883e-7 M
  microscale thermophoresis response (binding isotherm), mean: 0
[3]; [Ligand] 9.766e-7 M
  microscale thermophoresis response (binding isotherm), mean: 0
[3]; [Ligand] 1.9531e-6 M
  microscale thermophoresis response (binding isotherm), mean: 0
[3]; [Ligand] 3.9063e-6 M
  microscale thermophoresis response (binding isotherm), mean: 0
[3]; [Ligand] 7.8125e-6 M
  microscale thermophoresis response (binding isotherm), mean: 0
[3]; [Ligand] 1.5625e-5 M
  microscale thermophoresis response (binding isotherm), mean: 0
[3]; [Ligand] 3.125e-5 M
  microscale thermophoresis response (binding isotherm), mean: 0
[3]; [Ligand] 6.25e-5 M
  microscale thermophoresis response (binding isotherm), mean: 0
[3]; [Ligand] 0.000125 M
  microscale thermophoresis response (binding isotherm), mean: 0
[3]; [Ligand] 0.00025 M
  microscale thermophoresis response (binding isotherm), mean: 0
[3]; [Ligand] 0.0005 M
  microscale thermophoresis response (binding isotherm), mean: 0
[3]; microscale thermophoresis
  Binding to MRGPRX4: did not bind
